# From patent US8673929B2, “4,6-di- and 2,4,6-trisubstituted quinazoline derivatives and pharmaceutical compositions useful for treating viral infections” (priority 2006, dated 2014)
# How the values were obtained:
# [1] = system: HCV replicon; experiment: Anti-HCV replicon assay, EC50 (luciferase readout); assay type: cell-based; conditions: Hepatitis C virus, 72 h; Huh-7 HCV replicon cells, 3 days incubation, luciferase luminescence
# Description: (§1) The anti HCV activity of the quinazoline derivatives of this invention was tested in a human hepatoma Huh-7 cell line harbouring a HCV replicon. The assay comprised the following steps:
# (§2) Step 1: compound preparation and serial dilution • 1. for water soluble quinazoline derivatives, a volume of 500 μL of solution in cell media (DMEM, 10% FBS, P/S, L-Glutamine) was prepared with a concentration being twice the concentration of the starting final serial dilution concentration. A volume of 150 μL of the solution was added to the pre-specified wells in column 1 of a 96-well cell culture plate (PerkinElmer, white plate, cat. #6005181, for EC50 assay; black plate, cat. #6005182 for CC50 assay). The rest of the plate, columns 2-12, was filled with 100 μL of cell media. The plate was then placed on a Precision 2000 Workstation to start the serial dilution. Compounds were diluted three times each step from column 1 to column 10. Column 11 was used as a blank control (no compound added). • 2. for quinazoline derivatives requiring DMSO to dissolve, serial dilution is performed in 50% DMSO in a 384-well plate. A solution containing a compound at 100-fold concentration of the starting final serial dilution concentration was prepared in 50% DMSO and added to the pre-specified wells in column 1 of a polypropylene 384-well plate. The plate was then placed on a Precision 2000 Workstation to start the serial dilution. After the serial dilution, a volume of 2 μL of the solution was transferred from the 384-well plate to a 96-well cell culture plate containing 100 μL of cell media on a Biomek FX Workstation. The DMSO concentration in the final assay condition was 0.5% after cells are added to the plate and the total volume in each well is brought to 200 μL.
# (§3) Step 2: to each well of the serial dilution plate prepared above, 100 μL of cell media containing 6000 suspended Huh-7 HCV replicon cells was added with a Multidrop workstation. The plates were incubated for 3 days at 37° C. with 5% CO2.
# (§4) Step 3: detection: • a) for the EC50 assay, the media in a 96-well cell culture plate was aspirated with a Biotek EL405 plate-washer. A volume of 200 μL of a solution containing a 1:1 mixture of cell-lysis buffer (Promega, Luciferase Cell Culture Lysis 5× Reagent, cat. #E1531) and luciferase substrate solution (Promega, Luciferase Assay, cat.# E4550) was added to each well of the plate with Multidrop. The plate was incubated for 30 minutes at room temperature before the luminescence signal was measured with a TopCount plate-reader. • b) for the CC50 assay, a volume of 100 μL of pre-mixed CellTiter-Glo (Promega, cat.# G7572) solution is added directly to the cell culture in each well of the plate and the luminescence signal is measured with a TopCount plate-reader after 10 minutes of incubation at room temperature.
# (§5) Results in the table below are expressed by the following data: • the 50% cytostatic concentration (CC50), i.e. the concentration that results in 50% inhibition of cell growth, and • the 50% effective concentration (EC50), i.e. the concentration that […].
# [2] = CC50 assay in the anti-HCV replicon assay (CellTiter-Glo); assay type: cell-based, human; conditions: human, Huh-7 hepatoma cells harbouring an HCV replicon; Huh-7 HCV replicon cells, 3 days incubation, CellTiter-Glo luminescence
# Description: as §1, §2, §3, §4, §5
SMILES,EC50 [1] [µM],CC50 at 3 days [2] [µM]
"CC(C)Oc1nc(N)nc2ccc(-c3ccc(F)cc3Cl)cc12 [Example 81, 6-(2-Chloro-4-fluoro-phenyl)-4-isopropoxy-quinazolin-2-ylamine]",1 to 10,10 to 20
"CC(C)Oc1nc(N)nc2ccc(-c3cccc(Cl)c3)cc12 [Example 82, 6-(3-Chloro-phenyl)-4-isopropoxy-quinazolin-2-ylamine]",1 to 10,> 20
"CC(C)Oc1nc(N)nc2ccc(-c3cc4ccccc4s3)cc12 [Example 83, 6-Benzo[b]thiophen-2-yl-4-isopropoxy-quinazolin-2-ylamine]",1 to 10,10 to 20
"CC(C)Oc1nc(N)nc2ccc(-c3ccoc3)cc12 [Example 84, 6-Furan-3-yl-4-isopropoxy-quinazolin-2-ylamine]",0.3 to 1,10 to 20
"CC(C)Oc1nc(N)nc2ccc(-c3ccn[nH]3)cc12 [Example 85, 4-Isopropoxy-6-(2H-pyrazol-3-yl)-quinazolin-2-ylamine]",0.3 to 1,> 20
"CC(C)Oc1nc(N)nc2ccc(-c3cc4ccccc4o3)cc12 [Example 86, 6-Benzofuran-2-yl-4-isopropoxy-quinazolin-2-ylamine]",0.3 to 1,> 20
"CNC(=O)c1ccc(-c2ccc3nc(N)nc(OC(C)C)c3c2)cc1 [Example 87, 4-(2-Amino-4-isopropoxy-quinazolin-6-yl)-N-methyl-benzamide]",0.3 to 1,10 to 20
"CC(C)Oc1nc(N)nc2ccc(-c3ccco3)cc12 [Example 88, 6-Furan-2-yl-4-isopropoxy-quinazolin-2-ylamine]",1 to 10,> 20
"CC(C)Oc1nc(N)nc2ccc(-c3ccsc3)cc12 [Example 89, 4-Isopropoxy-6-thiophen-3-yl-quinazolin-2-ylamine]",0.3 to 1,10 to 20
"CC(C)Oc1nc(N)nc2ccc(-c3cccnc3)cc12 [Example 90, 4-Isopropoxy-6-pyridin-3-yl-quinazolin-2-ylamine]",0.3 to 1,> 20
"CC(C)Oc1nc(N)nc2ccc(-c3ccc(F)c(F)c3)cc12 [Example 91, 6-(3,4-Difluoro-phenyl)-4-isopropoxy-quinazolin-2-ylamine]",0.3 to 1,10 to 20
"CC(C)Oc1nc(N)nc2ccc(-c3ccncc3)cc12 [Example 92, 4-Isopropoxy-6-pyridin-4-yl-quinazolin-2-ylamine]",0.3 to 1,10 to 20
"CC(C)Oc1nc(N)nc2ccc(-c3cccc(C#N)c3)cc12 [Example 93, 3-(2-Amino-4-isopropoxy-quinazolin-6-yl)-benzonitrile]",0.3 to 1,10 to 20
"CC(C)Oc1nc(N)nc2ccc(-c3cc(F)cc(F)c3)cc12 [Example 94, 6-(3,5-Difluoro-phenyl)-4-isopropoxy-quinazolin-2-ylamine]",1 to 10,> 20
"CC(C)Oc1nc(N)nc2ccc(-c3ccc(OC(F)(F)F)cc3)cc12 [Example 95, 4-Isopropoxy-6-(4-trifluoromethoxy-phenyl)-quinazolin-2-ylamine]",1 to 10,> 20
"CC(C)Oc1nc(N)nc2ccc(-c3ccc(N)cc3)cc12 [Example 96, 6-(4-Amino-phenyl)-4-isopropoxy-quinazolin-2-ylamine]",0.3 to 1,> 20
"CC(C)Oc1nc(N)nc2ccc(-c3ccc(F)c(F)c3F)cc12 [Example 97, 4-Isopropoxy-6-(2,3,4-trifluoro-phenyl)-quinazolin-2-ylamine]",0.3 to 1,> 20
"CC(C)Oc1nc(N)nc2ccc(-c3ccccc3OCc3ccccc3)cc12 [Example 98, 6-(2-Benzyloxy-phenyl)-4-isopropoxy-quinazolin-2-ylamine]",1 to 10,< 10

SMILES,EC50 [1] [µM],CC50 at 3 days [2] [µM]
"CC(C)Oc1nc(N)nc2ccc(-c3ccc(C#N)cc3)cc12 [Example 99, 4-(2-Amino-4-isopropoxy-quinazolin-6-yl)-benzonitrile]",0.3 to 1,> 20
"CC(C)Oc1nc(N)nc2ccc(-c3ccc(O)cc3)cc12 [Example 100, 4-(2-Amino-4-isopropoxy-quinazolin-6-yl)-phenol]",< 0.3,10 to 20
"CC(C)Oc1nc(N)nc2ccc(-c3cnc4ccccc4c3)cc12 [Example 101, 4-Isopropoxy-6-quinolin-3-yl-quinazolin-2-ylamine]",1 to 10,10 to 20
"Nc1nc(OCC2CCC2)c2cc(-c3ccc(F)cc3F)ccc2n1 [Example 102, 4-Cyclobutylmethoxy-6-(2,4-difluoro-phenyl)-quinazolin-2-ylamine]",1 to 10,< 10
"Nc1nc(OCC2CCC2)c2cc(-c3ccc(F)cc3)ccc2n1 [Example 103, 4-Cyclobutylmethoxy-6-(4-fluoro-phenyl)-quinazolin-2-ylamine]",1 to 10,10 to 20
"Nc1nc(OCC2CCC2)c2cc(-c3cccc(F)c3F)ccc2n1 [Example 104, 4-Cyclobutylmethoxy-6-(2,3-difluoro-phenyl)-quinazolin-2-ylamine]",1 to 10,> 20
"Cc1ccccc1-c1ccc2nc(N)nc(OCC3CCC3)c2c1 [Example 105, 4-Cyclobutylmethoxy-6-o-tolyl-quinazolin-2-ylamine]",1 to 10,10 to 20
"Nc1nc(OCC2CCC2)c2cc(-c3cccc(C(F)(F)F)c3)ccc2n1 [Example 106, 4-Cyclobutylmethoxy-6-(3-trifluoromethyl-phenyl)-quinazolin-2-ylamine]",1 to 10,10 to 20
"Cc1ccc(-c2ccc3nc(N)nc(OCC4CCC4)c3c2)cc1 [Example 107, 4-Cyclobutylmethoxy-6-p-tolyl-quinazolin-2-ylamine]",1 to 10,> 20
"Nc1nc(OCC2CCC2)c2cc(-c3ccc(Cl)cc3Cl)ccc2n1 [Example 108, 4-Cyclobutylmethoxy-6-(2,4-dichloro-phenyl)-quinazolin-2-ylamine]",1 to 10,> 20
"CCOc1ccc(-c2ccc3nc(N)nc(OCC4CCC4)c3c2)cc1 [Example 109, 4-Cyclobutylmethoxy-6-(4-ethoxy-phenyl)-quinazolin-2-ylamine]",1 to 10,> 20
"Nc1nc(OCC2CCC2)c2cc(-c3ccc(F)cc3Cl)ccc2n1 [Example 110, 4-Cyclobutylmethoxy-6-(2-chloro-4-fluoro-phenyl)-quinazolin-2-ylamine]",1 to 10,10 to 20
"Nc1nc(OCC2CCC2)c2cc(-c3ccoc3)ccc2n1 [Example 111, 4-Cyclobutylmethoxy-6-furan-3-yl-quinazolin-2-ylamine]",0.3 to 1,10 to 20
"Nc1nc(OCC2CCC2)c2cc(-c3ccc(F)c(Cl)c3)ccc2n1 [Example 112, 4-Cyclobutylmethoxy-6-(3-chloro-4-fluoro-phenyl)-quinazolin-2-ylamine]",1 to 10,> 20
"Nc1nc(OCC2CCC2)c2cc(-c3ccn[nH]3)ccc2n1 [Example 113, 4-Cyclobutylmethoxy-6-(2H-pyrazol-3-yl)-quinazolin-2-ylamine]",0.3 to 1,10 to 20
"Nc1nc(OCC2CCC2)c2cc(-c3cc4ccccc4o3)ccc2n1 [Example 114, 6-Benzofuran-2-yl-4-cyclobutylmethoxy-quinazolin-2-ylamine]",1 to 10,10 to 20
"Nc1nc(OCC2CCC2)c2cc(-c3ccco3)ccc2n1 [Example 116, 4-Cyclobutylmethoxy-6-furan-2-yl-quinazolin-2-ylamine]",1 to 10,> 20
"Nc1nc(OCC2CCC2)c2cc(-c3ccsc3)ccc2n1 [Example 117, 4-Cyclobutylmethoxy-6-thiophen-3-yl-quinazolin-2-ylamine]",1 to 10,10 to 20
